From US8778952B2, “Method of reducing intraosseous hypertension” (priority 2007, dated 2014)

Test system: patient with severe arthritis in their knee
Experiment: Case observation: MRI and reported pain of a patient's arthritic knee before and after routine use of a phosphodiesterase inhibitor
Assay type: in vivo, human
Details: one patient, 50 mg of sildenafil, once per day
Excerpt: A physician, who is also the inventor of the present invention, performed an arthroscopic surgical procedure on a patient suffering from a loose cartilage body in the setting of severe arthritis in their knee. The patient was a competitive senior tennis player and declined knee replacement for that reason. The purpose of the procedure was merely to remove a loose body and abate the mechanical symptoms it caused. Approximately one year later, the patient returned to their physician for evaluation of what was believed to be an unrelated ganglion cyst on the same knee. […] Upon questioning by their physician, the patient explained that the only difference in their medical history (including lifestyle, activity, new illness and medications) between the time of the first and second MRIs was that they started using a phosphodiesterase inhibitor. Specifically, the patient started using Viagra® (50 mg of sildenafil, once per day). There were no other changes in the interval medical history.

## CCCc1nn(C)c2c(=O)[nH]c(-c3cc(S(=O)(=O)N4CCN(C)CC4)ccc3OCC)nc12 [Viagra®, sildenafil]
FIG. 2 MRI compared with FIG. 1 MRI approximately one year earlier
  intraosseous hypertension / bone edema on coronal MRI of knee (white spots on tibial spines): dissipation of the intraosseous hypertension
Few months prior to second MRI, approximately one year after first MRI
  knee pain from arthritis (reported by patient): reduction in knee pain
